Each structure is given as a SMILES string.

Assay [1] concerns CLZ_44 (SEQ ID NO:38) mRNA. The assay is described as follows: Northern blot analysis of CLZ_44 in striatum/nucleus accumbens. Format: in vivo, mouse. The conditions noted are these: 2 weeks of treatment; clozapine 7.5 mg/kg, haloperidol 4 mg/kg, ketanserin 4 mg/kg. As to the method:
FIG. 39 is a graphical representation of a Northern Blot analysis of clone CLZ—44 (ACGG 352) (SEQ ID NO:38), where an agarose gel containing poly A enriched mRNA from the striatum/nucleus accumbens of clozapine-treated mice as well as size standards was blotted after electrophoresis and probed with radiolabelled CLZ—44.
In further characterization of CLZ—44, Northern blot analyses were performed to determine the pattern of expression in the striatum/nucleus accumbens after 2 weeks of treatment of control mice, clozapine-treated mice, haloperidol-treated mice, and ketanserin-treated mice (FIG. 39). Ketanserin is a 5HT2A/2C—selective antagonist, and is used to determine serotonorgic involvement in these drug effects. FIG. 39 is a graphical representation of the described northern blot analyses.

Assay [2] deals with apoD mRNA. The assay is described as follows: apoD mRNA expression in mouse brain after 5HT2 antagonists (preliminary results). The assay is classed as in vivo.
Assay [3] deals with CLZ_40 (SEQ ID NO:12) mRNA. The assay is described as follows: Real Time PCR validation of CLZ_40. The assay is classed as in vivo, mouse. As to conditions: mice chronically (2 weeks) treated. The text has this:
Validation of the DST expression for select DSTs was done by Real Time PCR using the ABI PRISM 7700 Sequence Detection System (PE Biosystems) that combines PCR, cycle-by-cycle fluorescence detection and analysis software for high-throughput quantitation of nucleic acid sequences. […] Standards for normalizing the quantitation of gene levels were chosen from a panel of 5 mouse “housekeeping” genes.

Assay [4] has as its system mouse sequence homolog to human KIAA1451 (SEQ ID NO:79). Description: Real Time PCR of mouse sequence homolog to human KIAA1451. The conditions noted are these: mice chronically treated. In general terms: Quantitative PCR measures a nucleic acid by following its amplification.
The subject of a further assay is CLZ_5 (apoD) mRNA. Description: Real Time PCR validation of CLZ_5 (apoD). The assay is classed as in vivo, mouse. The conditions noted are these: clozapine or haloperidol treated mice.
Assay [5] has as its system apoD mRNA. Description: In situ hybridization analysis of apoD (CLZ_5) in mouse brain. Format: in vivo. The conditions noted are these: clozapine 7.5 mg/kg five days and two weeks: striatum, cortex, globus pallidus, thalamus, white matter tracts; haloperidol: gray or white matter regions. As to the method: In further characterization of CLZ—43, in situ hybridization analysis using an antisense cRNA probe directed against the 3′ end of CLZ—43 were performed to show the pattern of CLZ—43 mRNA expression (FIG. 4A-F). In situ hybridization was performed on free-floating coronal sections (25 μM thick) with an ^35S-labeled, single-stranded antisense cRNA probe of CLZ—43. Coronal sections were hybridized at 55° C for 16 hour with an ^35S-labeled, single-stranded antisense cRNA probe of CLZ—43 at 10^7 cpm/ml. The probe was synthesized from the 3′-ended cDNA TOGA™ clone using the Maxiscript Transcription Kit (Ambion, Austin, Tex.). Excess probe was removed by washing with 2×SSC (I×SSC=[…]) containing 14 mM β-mercaptoethanol (30 minutes), followed by incubation with 4 μg/ml ribonuclease in 0.5 M NaCl/0.05 M EDTA/0.05 M Tris-HCl, pH 7.5, for 1 hour at 37° C. High stringency washes were carried out at 55° C. for 2 hours in 0.5×SSC/50% formamide/0.01 M β-mercaptoethanol, and then at 68° C. for 1 hour in 0.1×SSC/0.01 M β-mercaptoethanol/0.5% sarkosyl. […]
To investigate additional sites of apoD induction, in situ hybridization analysis was performed on brains from saline- and clozapine-treated mice. […] Increases in apoD expression were also detected in white matter tracts, predominantly the corpus callosum (cc), anterior commissure, internal capsule (ic) and optic tract (opt). […]

In assay [6] the test system is CLZ_43 (SEQ ID NO:37) mRNA. The assay is described as follows: Real Time PCR validation of CLZ_43. The conditions noted are these: clozapine 12 days; haloperidol 14 days; relative to untreated mice.
Assay [7] has as its system mRNAs (DSTs) expressed in striatum/nucleus accumbens. Description: TOGA analysis of mRNA from striatum/nucleus accumbens of neuroleptic-treated mice (Table 1). The conditions noted are these: haloperidol experiment in duplicate, average.
Assay [8] concerns CLZ_40 (TTGT 266) mRNA in striatum and amygdala. Description: TOGA analysis of mRNA from brain of morphine-treated mice. The assay is classed as in vivo, mouse.
Description: For the morphine studies, male C57B1/6J mice (20-28 g) were housed as previously described in Example 1 and divided into the following groups: 1) a control group, in which the mice were subcutaneusly implanted with one placebo pellet upon halothane anaesthesia; 2) an acute morphine group, in which the mice received a morphine intraperitoneal injection of 10 mg/kg; 3) a chronic or tolerant group, in which mice were rendered drug-tolerant and dependent by means of subcutaneous implantation of a single pellet containing 75 mg of morphine free base for 3 days; and 4) a withdrawal group, in which the mice rendered tolerant to morphine were injected intraperitoneally with naltrexone 1 mg/kg. […] Their brains were rapidly removed. The striatum, including the nucleus accumbens, and block of tissues containing the amygdala complex were dissected under microscope and collected in ice-cold RNA extraction buffer.

Regarding `O=C(c1ccc(F)cc1)C1CCN(CCn2c(=O)[nH]c3ccccc3c2=O)CC1` [ketanserin], in [1], the “CLZ_44 expression, Northern” value is “up-regulated”. For the same molecule, the “apoD mRNA expression in mouse brain” value in the assay with apoD mRNA [2] is given as “apparent upregulation”.

With `CN1CCN(C2=Nc3cc(Cl)ccc3Nc3ccccc32)CC1` [clozapine], in assay [3], the “decrease in expression of CLZ_40, Real Time PCR” value is listed as 0.37 fold. In assay [4], the “increase in expression of mouse homolog to human KIAA1451, Real Time PCR” value was found to be 2.09 fold.

With `O=C(CCCN1CCC(O)(c2ccc(Cl)cc2)CC1)c1ccc(F)cc1` [haloperidol], the “decrease in expression of CLZ_40, Real Time PCR” value in assay [3] is 0.66 fold. For the same molecule, the “increase in expression of CLZ_5 (apoD), Real Time PCR” value in the assay with CLZ_5 (apoD) mRNA is reported as 1.75 fold. The “CLZ_44 expression, Northern” value in assay [1] is listed as “up-regulated”. Further, the “apoD mRNA, in situ hybridization” value in the assay on apoD mRNA [5] is listed as “did not reveal substantial increases”. Moreover, the “CLZ_43 expression, TOGA and Real Time PCR” value in [6] is listed as “not significantly responsive”. Besides, the “increase in expression of mouse homolog to human KIAA1451, Real Time PCR” value in assay [4] stood at 2.57 fold. For the same molecule, in assay [7], the “CLZ_43 TOGA profile for the haloperidol response” value is 1.08 fold.

`CN1CC[C@]23c4c5ccc(O)c4O[C@H]2[C@@H](O)C=C[C@H]3[C@H]1C5` [morphine]: the “CLZ_40 expression in striatum, TOGA” value in assay [8] (acute morphine 10 mg/kg i.p., withdrawal (naltrexone 1 mg/kg in morphine-tolerant mice)) was “downregulated in withdrawal striatum but not acutely treated striatum”. Besides, the “CLZ_40 expression in amygdala, TOGA” value in assay [8] (acutely treated (morphine 10 mg/kg i.p., 4 hours)) was “slightly upregulated”; in assay [8] (chronically treated (75 mg pellet, 3 days) and withdrawal), “increasingly upregulated”.

The values are drawn from patent US20070010664A1, “Gene expression in the central nervous system regulated by neuroleptic agents” (priority 2001, published 2007).
